Experimental data: PubChem BioAssay AID1345 (Sanford-Burnham Center for Chemical Genomics, 2008)
Active and inactive are the calls of the source.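 Rule for the calls: active = survival above 70% of the untreated level at 25 µM; inactive = the rest.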

These compounds were tested on CSM14.1 cells, VP16-induced death, ATP luminescence, 48 h (assay: protection against VP16 DNA-damage killing – cell-based, undifferentiated CSM14.1, ATP content, selectivity assay for ER stress death inhibitor project, late-stage follow-up (AID 1345)). Conditions: at 25 µM; stronger effect = higher value.

| SMILES | viability |
| --- | --- |
| CCCOc1ccc(C2Nc3ccccc3NC3=C2C(=O)CC(c2ccc(OC)c(OC)c2)C3)cc1 (stereo unspecified) | 57% (inactive) |
| CCOc1cc(C2Nc3ccccc3NC3=C2C(=O)CC(c2ccc(OC)cc2)C3)cc(Cl)c1O (stereo unspecified) | 42% (inactive) |
| CCOc1cccc(C2Nc3ccccc3NC3=C2C(=O)CC(c2ccc(OC)cc2)C3)c1 (stereo unspecified) | 50% (inactive) |
| CSc1ccc(C2Nc3ccccc3NC3=C2C(=O)CC(c2ccccc2)C3)cc1 (stereo unspecified) | 52% (inactive) |
| O=C1CC(c2ccccc2)CC2=C1C(c1c(F)cccc1Cl)Nc1ccccc1N2 (stereo unspecified) | 50% (inactive) |
| COc1ccc(C2CC(=O)C3=C(C2)Nc2ccccc2NC3c2cccc(C(F)(F)F)c2)cc1OC (stereo unspecified) | 49% (inactive) |
| CC1(C)CC(=O)C2=C(C1)Nc1ccccc1NC2c1ccc(-c2ccccc2)cc1 (stereo unspecified) | 53% (inactive) |
| COc1ccc(C2CC(=O)C3=C(C2)Nc2ccccc2NC3c2cccc(Oc3ccccc3)c2)cc1OC (stereo unspecified) | 54% (inactive) |
| COc1ccc(C2CC(=O)C3=C(C2)Nc2ccccc2NC3c2cccc(Br)c2)cc1OC (stereo unspecified) | 56% (inactive) |
| COc1ccc(C2CC(=O)C3=C(C2)Nc2ccccc2NC3c2ccccc2C(F)(F)F)cc1OC (stereo unspecified) | 50% (inactive) |
| COc1ccc(C2CC(=O)C3=C(C2)Nc2ccccc2NC3c2cc(C)ccc2C)cc1 (stereo unspecified) | 56% (inactive) |
